Laboratory results from patent publication US7521540B2, “CYR61 compositions and methods” (Munin Corporation, priority 1996, dated 2009).

How the values were obtained:
[1] = test system: platelets; assay: Platelet adhesion assay; assay type: cell-based, human
Description: Microtiter wells were coated with purified recombinant Fisp12/mCTGF or Cyr61, and the adhesion of isolated platelets to these proteins was detected with ^125I-mAb15, an anti-β3 monoclonal antibody (Frelinger et al., J. Biol. Chem 265:6346-6352 [1990]). Platelets were obtained from venous blood drawn from healthy donors and collected into acid-citrate-dextrose (ACD). Washed platelets were prepared by diffenential centrifugation as described (Kinlough-Rathbone et al. Thromb. Haemostas 2:291-308 [1997]), and finally resuspended in HEPES-Tyrode's buffer (5 mM HEPES, pH 7.35, 1 mM MgCl2, 1 mM CaCl2, 135 mM NaCl, 2.7 mM KCl, 11.9 mM NaHCO3, 1 mg/ml dextrose and 3.5 mg/ml BSA). The platelet concentration was adjusted to […].
Microtiter wells (Immulon 2 removawell strips, Dynex Technologies, Inc.) were coated with Cyr61, Fisp12/mCTGF, or fibrinogen (25 μg/ml, 50 μl/well) incubated overnight at 22° C., and then blocked with 3% BSA at 37° C. for 2 hours. Washed platelets were added to the wells (100 μl/well) in the presence and absence of platelet agonists and incubated at 37° C. for 30 minutes. The wells were washed with HEPES-Tyrode's buffer and adherent platelets were detected with ^125I-mAb15, an anti-β3 monoclonal antibody. Exposure to the labeled antibody ([…], 50 μl/well) proceeded for 1 hour at 22° C. After extensive washing with HEPES-Tyrode's buffer, bound radioactivity was determined by γ-counting. In inhibition studies, washed platelets were pre-incubated with blocking peptides or antibodies at 37° C. for 15 minutes prior to addition to microtiter wells.
The anti-β3 antibody was radioiodinated with carrier-free Na^125I (Amersham Corp.) using the IODO-BEADS iodination reagent (Pierce) to a specific activity of approximately 2 μCi/μg. […] As controls, BSA- and fibrinogen-coated (KabiVitrum Inc.) wells were also used. Initially, the adhesion of unactivated versus activated platelets to immobilized Fisp12/mCTGF and Cyr61 was compared. To ensure that plateltes were not activated during the washing procedures, PGl2 (100 nM), which inhibits activation by raising platelet cAMP levels, was added to the platelet suspensions. […]

[2] = test system: Human Microvascular Endothelial Cells; assay: In vitro migration assay for angiogenesis inhibitors; assay type: cell-based; details: for migrating cells per set of three high-powered fields, Cyr61 plus compound: Cyr61 1 μg/ml plus 10 mM compound
Description: As in the preceding Example, human microvascular endothelial cells (Clonetics) were used. In one series of assays, several carbohydrates and carbohydrate derivatives were analyzed. These compounds included 10 mM mannose, 10 mM mannose-6-phosphate, and 10 mM galactose. […] Cyr61 plus galactose induced the migration of approximately 74 cells per set of three high-powered fields. […] The angiogenic activity of basic FGF (10 ng/ml) was also tested, as described above, with and without mannose-6-phosphate. In the presence of 10 mM mannose-6-phosphate, bFGF induced 51 cells per set of three high-powered fields to migrate; in its absence, bFGF induced the migration of approximately 52 cells. […] The effect of mannose-6-phosphate on IGF II activity was anticipated because mannose-6-phosphate is known to compete with IGF II for their common receptor (the IGF II receptor). […] Moreover, because there is an essentially perfect correlation between the in vitro migration assay and the in vivo angiogenesis assay, described below, mannose-6-phosphate has been identified as an inhibitor of angiogenesis based on the results of the assay disclosed herein. Accordingly, the invention contemplates a method of inhibiting angiogenesis comprising the step of administering an inhibitor the angiogenic activity of Cyr61 such as mannose-6-phosphate. Assays such as that described above may also be used to screen for other inhibitors of angiogenesis which may be useful in the treatment of diseases associated with angiogenesis such as cancer, and diseases of the eye which are accompanied by neovascularization.

[3] = test system: 1064SK primary human foreskin fibroblasts; assay: Fibroblast adhesion assay (methylene blue, A620); assay type: cell-based; details: for 1064SK adhesion to Cyr61-coated wells with agent: Cyr61 2 μg/ml, agent at the level stated in the block, Mg2+ 5.0 mM after EDTA; for 1064SK adhesion to Type I collagen-coated wells with agent: Type I collagen 2 μg/ml; for 1064SK adhesion to vitronectin-coated wells with agent: vitronectin 0.5 μg/ml; for concentration that inhibited cell adhesion to Cyr61: in cell suspension
Description: The ability of Cyr61 to mediate cell adhesion in normal fibroblasts was investigated. Microtiter wells were coated with purified recombinant Cyr61 protein, and 1064SK primary human foreskin fibroblasts were allowed to adhere under serum-free conditions. […] 50 μl cell suspensions were plated on microtiter wells coated with varying concentrations (0.5-5.0 μg/ml) of Cyr61 protein. After incubation at 37° C. for 30 minutes, adherent cells were fixed and stained with methylene blue.
In another experiment, microtiter wells were coated with either BSA, Cyr61 (2 μg/ml), or vitronectin (VN; 0.5 μg/ml) and blocked with affinity-purified anti-Cyr61 antibodies for one hour at 37° C. before 1064SK cells were plated.
The effects of divalent cations in cell adhesion to Cyr61 was also investigated. […] Data are means from triplicate determinations. […] Inhibition by Ca^2+ is characteristic of adhesion through some members of the β1 family of integrins, including receptors that bind type I collagen, laminin, and vitronectin (integrins α2β1, α6β1, and αVβ1) in fibroblasts, as well as the lymphocyte-specific integrin αLβ2.
The effects of RGD peptides on Cyr61-mediated fibroblast binding was tested by plating cells in wells coated with Cyr61 (2 μg/ml). Type I collagen (2 μg/ml) or vitronectin (0.5 μg/ml), 2 mM GRGDSP or GRGESP peptide was then added.
Cells were also pre-incubated with 40 μg/ml monoclonal antibodies against the integrin α5 or the integrin αV subunits at room temperature for 30 minutes, then plated on wells coated with Cyr61 (2 μg/ml), vitronectin (0.5 μg/ml) or fibronectin (FN, 1 μg/ml). […] The data are means, representative of three experiments.
The 1064 SK cells were also analyzed using the monoclonal antibody JBIA, which binds the β1 integrin subunit. Cells were pre-incubated with the antibody (50 μg/ml) before plating on microtiter wells coated with Cyr61 (2 μg/ml), Type I collagen (2 μg/ml), or vitronectin (0.5 μg/ml). […] Data are means, representative of three experiments.
To identify the specific β1 integrin that mediates fibroblast adhesion to Cyr61, the inhibitory effects of function-blocking monoclonal antibodies were tested against various integrin α subunits. […] The data are means, representative of at least three experiments.

[4] = test system: HUVE cells; assay: HUVE cell attachment to murine Cyr61-coated plates; assay type: cell-based, human; details: Cyr61-coated surfaces
Description: Another embodiment of the invention is directed to the use of Cyr61 to mediate cellular attachment to the extracellular matrix. Induction of cellular adhesion was investigated using murine Cyr61, fibronectin, and bovine serum albumin (BSA). Immunological 96-well plates (Falcon brand) were coated with 50 μl of 0.1% BSA in PBS at 4° C. in the presence of 0-30 μg/ml concentrations of murine Cyr61 or fibronectin. After two hours exposure to the coating solution, non-diluted immune or pre-immune antisera (30 μl/well), or affinity-purified anti-Cyr61 antibodies were added. For some wells, the coating mixture was adjusted to 10 mM DTT or 100 mM HCl. After 16 hours incubation, the coating solution was removed and the well surface was blocked with 1% BSA in phosphate-buffered saline (PBS) for 1 hour at room temperature. HUVE cells were plated in Ham's complete F12K medium [GIBCO-BRL, Inc.; Ham, Proc. Natl. Acacd. Sci. (USA) 53:786 (1965)] at 5×10^3-10^4 cells/well. Cycloheximide was added to 100 μg/ml immediately before plating and monensin was added to 1 μM 14 hours before plating. After a 2-hour incubation at 37° C., the wells were washed with PBS and attached cells were fixed and stained with methylene blue. The attachment efficiency was determined by quantitative dye extraction and measurement of the extract absorbance at 650 nm. Oliver et al., J. Cell. Sci. 92:513-518 (1989).

## RGES [reference compound]
[1]
  effect of agent on adhesion of ADP-activated platelets to fibrinogen: not by RGES or LM609

## O=C[C@H](O)[C@@H](O)[C@@H](O)[C@H](O)CO [galactose]
[2]
  migrating cells per set of three high-powered fields, Cyr61 plus compound: approximately 74 cells

## GRGESP
[3]
  1064SK adhesion to Cyr61-coated wells with agent: ~0.46 A620
  1064SK adhesion to Type I collagen-coated wells with agent: 0.49 A620
  1064SK adhesion to vitronectin-coated wells with agent: 0.41 A620

## O=C(O)CN(CCOCCOCCN(CC(=O)O)CC(=O)O)CC(=O)O [EGTA]
[4]
  effect of agent on HUVE cell adhesion to Cyr61: completely abolished

## [Ca+2] [Ca^2+]
[3]
  effect of agent on fibroblast adhesion to Cyr61: abolished cell adhesion to Cyr61 competely

## IGF-II: Insulin Growth Factor II
[2]; bFGF 10 ng/ml, Cyr61, IGF-II
  migrating cells, chemoattractant without mannose-6-phosphate: ~47 cells

## heparan sulfate
[3]
  concentration that inhibited cell adhesion to Cyr61: 0.1 µg/mL

## [Mn+2] [Mn^2+]
[3]
  effect of agent on fibroblast adhesion to Cyr61: had no effect

## laminin
[3]; Cyr61 2, VN 0.5, Type I collagen 2, fibronectin 1, laminin 5 μg/ml
  1064SK adhesion to coated protein, nothing added: 0.62 A620

## Chondroitin sulfate A [chondroitin A]
[3]
  concentration that inhibited cell adhesion to Cyr61: 1000 µg/mL

## CCCCC[C@H](O)/C=C/[C@@H]1[C@H]2C/C(=C/CCCC(=O)O)O[C@H]2C[C@H]1O [PGl2]
[1]
  effect of agent on activated platelet adhesion to Cyr61 and Fisp12/mCTGF: significantly inhibited

## O=S(=O)([O-])[O-].[Mg+2] [MgSO4, magnesium sulfate]
[3]
  effect of agent on fibroblast adhesion to Cyr61: resuced

## [Mg+2] [Mg^2+]
[3]
  effect of agent on fibroblast adhesion to Cyr61: had no effect
  1064SK adhesion to Cyr61-coated wells with agent: 0.50 A620
  1064SK adhesion to Type I collagen-coated wells with agent: 0.58 A620
  1064SK adhesion to vitronectin-coated wells with agent: 0.55 A620

## [Na+].[O-][Cl+2]([O-])[O-] [sodium chlorate]
[3]; 40 mM, fibronectin, type I collagen, vitronectin, laminin
  inhibition of cell adhesion to other substrates: 10-20%
[3]; sodium chlorate 40 mM
  inhibition of cell adhesion to Cyr61: 90%

## Chondroitin sulfate B (Dermatan sulfate) [chondroitin B]
[3]
  concentration that inhibited cell adhesion to Cyr61: 10 µg/mL

## C[C@@H]1C[C@@H]([C@H](O)CC2CC(=O)NC(=O)C2)C(=O)[C@@H](C)C1 [cycloheximide]
[4]
  effect of agent on HUVE cell adhesion to Cyr61: insensitive

## CC[C@@]1([C@@H]2O[C@@H]([C@H]3O[C@@](O)(CO)[C@H](C)C[C@@H]3C)C[C@@H]2C)CC[C@H]([C@]2(C)CC[C@]3(C[C@H](O)[C@@H](C)[C@@H]([C@@H](C)[C@@H](OC)[C@H](C)C(=O)O)O3)O2)O1 [monensin]
[4]
  effect of agent on HUVE cell adhesion to Cyr61: insensitive

## Chondroitin sulfate C [chondroitin C]
[3]; 0.01-1000 μg/ml
  inhibition of adhesion to Cyr61: failed to inhibit adhesion to Cyr61 at all concentrations tested

## chondroitinase A, B, C
[3]
  1064SK adhesion to Cyr61-coated wells with agent: 0.57 A620
  1064SK adhesion to vitronectin-coated wells with agent: 0.69 A620
[3]; fibronectin 1 μg/ml
  1064SK adhesion to fibronectin-coated wells with agent: 0.65 A620

## GRGDSP
[3]
  1064SK adhesion to Cyr61-coated wells with agent: ~0.48 A620
  1064SK adhesion to Type I collagen-coated wells with agent: 0.47 A620
  1064SK adhesion to vitronectin-coated wells with agent: 0.05 A620
[1]
  effect of agent on activated platelet adhesion to Cyr61 and Fisp12/mCTGF: specifically inhibited

## O=C[C@@H](O)[C@@H](O)[C@H](O)[C@H](O)COP(=O)(O)O [mannose-6-phosphate]
[2]
  migrating cells induced by Cyr61 in presence of compound: approximately 12 cells
  migrating cells induced by IGF-II in presence of compound: ~11 cells
  migrating cells per set of three high-powered fields, Cyr61 plus compound: approximately 2 cells
[2]; bFGF 10 ng/ml, 10 mM compound
  migrating cells induced by bFGF in presence of compound: 51 cells
